Source: US10954243B2, “Substituted heterocyclic inhibitors of PTPN11” (NAVIRE PHARMA, INC., priority 2018, dated 2021)
Read-outs that look alike come from different tables or passages of the source.

Columns and labels:
[1] = target: PTPN11-E76K mutant enzyme (Homo sapiens (Human), UniProt Q06124, E76K); test: PTPN11 enzymatic assay (DiFMUP phosphatase activity); type: biochemical; details: full length PTPN11-E76K mutant, 250 pM enzyme, DiFMUP 50 μM substrate
Procedure: Reaction was initiated by addition of DiFMUP (50 μM) at room temperature in 384-well black plate with a final reaction volume of 20 uL in assay buffer. After 1 hour, DiFMUP fluorescence signal was measured (Ex:340/Em:460) using Envision plate reader. Dose-response curves were analyzed using IC50 regression curve fitting (GeneData Screener). Curves were normalized to a high controls without inhibitor, and low controls without enzyme.

KYSE-520 cells = test: pERK AlphaScreen; type: cell-based; details: Homo sapiens
Procedure: KYSE-520 cells (10 k cells/well) were grown in 384-well plate in 20 uL of medium (RPMI-1640, without phenol red, containing 10% FBS) at 37° C. with 5% CO2 overnight. DMSO (control) or increasing concentrations of compounds were diluted in medium, added to the 384-well plate (5 uL/well, final DMSO concentration of 1%), and cells were then incubated with compounds for 2 hr. Phospho-ERK levels were measured using phospho-ERK1/2 AlphaScreen SureFire (PerkinElmer, TGRESB10K) following manufacturer's recommendations. Dose-response curves were analyzed using IC50 regression curve fitting (GeneData Screener). Curves were normalized to a high control without inhibitor (DMSO only), and low control (1 μM selumetinib).

[2] = KYSE-520 cells, 2 hr incubation, phospho-ERK1/2 AlphaScreen SureFire, read-out: pERK Avg IC50
[3] = KYSE-520, 2 h, read-out: pERK Avg IC50 (nM)

Chain of PTPN11-E76K mutant enzyme (Q06124 whole entry E76K): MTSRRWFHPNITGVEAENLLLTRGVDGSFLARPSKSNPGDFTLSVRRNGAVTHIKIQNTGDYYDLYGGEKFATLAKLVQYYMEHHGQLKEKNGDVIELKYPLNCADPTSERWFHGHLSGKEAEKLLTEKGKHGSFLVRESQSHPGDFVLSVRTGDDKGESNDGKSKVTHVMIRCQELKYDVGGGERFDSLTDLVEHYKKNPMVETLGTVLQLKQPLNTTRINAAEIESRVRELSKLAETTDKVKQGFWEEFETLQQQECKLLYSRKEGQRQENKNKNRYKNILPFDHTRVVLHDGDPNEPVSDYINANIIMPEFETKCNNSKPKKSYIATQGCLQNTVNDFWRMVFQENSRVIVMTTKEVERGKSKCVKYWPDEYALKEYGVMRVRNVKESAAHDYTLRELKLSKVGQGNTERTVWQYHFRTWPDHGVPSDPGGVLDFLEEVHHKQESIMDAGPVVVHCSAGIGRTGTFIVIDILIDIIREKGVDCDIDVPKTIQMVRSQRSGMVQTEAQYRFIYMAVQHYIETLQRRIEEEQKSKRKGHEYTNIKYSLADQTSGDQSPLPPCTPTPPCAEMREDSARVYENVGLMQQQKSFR

Row | SMILES | IC50 [1] [nM] | IC50 (KYSE-520 cells; [2]) [nM] | IC50 (KYSE-520 cells; [3]) [nM]
1 | CC1(N)CCN(c2nc3[nH]nc(-c4cccc(Cl)c4Cl)c3nc2Br)CC1 [Example 2, 1-(5-bromo-3-(2,3-dichlorophenyl)-1H-pyrazolo[3,4-b]pyrazin-6-yl)-4-methylpiperidin-4-amine] | 317 | 580 | –
2 | CC1(N)CCN(c2nc3[nH]nc(-c4cccc(Cl)c4Cl)c3nc2C(F)F)CC1 [Example 14, 1-(3-(2,3-dichlorophenyl)-5-(difluoromethyl)-1H-pyrazolo[3,4-b]pyrazin-6-yl)-4-methylpiperidin-4-amine] | 22 | 36 | –
3 | CC1(N)CCN(c2nc3[nH]nc(-c4cccc(Cl)c4Cl)c3nc2C=O)CC1 [Example 9, 6-(4-amino-4-methylpiperidin-1-yl)-3-(2,3-dichlorophenyl)-1H-pyrazolo[3,4-b]pyrazine-5-carbaldehyde] | 190 | 647 | –
4 | Cc1nc2c(-c3cccc(Cl)c3Cl)n[nH]c2nc1N1CCC(C)(N)CC1 [Example 1, 1-(3-(2,3-dichlorophenyl)-5-methyl-1H-pyrazolo[3,4-b]pyrazin-6-yl)-4-methylpiperidin-4-amine] | 68 | 93 | –
5 | CC1(N)CCN(c2nc3[nH]nc(-c4cccc(Cl)c4Cl)c3nc2CF)CC1 [Example 15, 1-(3-(2,3-dichlorophenyl)-5-(fluoromethyl)-1H-pyrazolo[3,4-b]pyrazin-6-yl)-4-methylpiperidin-4-amine] | 1 | 0.4 | –
6 | CNc1nccc(-c2n[nH]c3nc(N4CCC(C)(N)CC4)c(CO)nc23)c1Cl [Example 11, (6-(4-amino-4-methylpiperidin-1-yl)-3-(3-chloro-2-(methylamino)pyridin-4-yl)-1H-pyrazolo[3,4-b]pyrazin-5-yl)methanol] | 17 | – | –
7 | CCNc1nccc(-c2n[nH]c3nc(N4CCC5(CC4)CO[C@@H](C)[C@H]5N)c(C)nc23)c1Cl [Example 18, (3S,4S)-8-(3-(3-chloro-2-(ethylamino)pyridin-4-yl)-5-methyl-1H-pyrazolo[3,4-b]pyrazin-6-yl)-3-methyl-2-oxa-8-azaspiro[4.5]decan-4-amine 2,2,2-trifluoroacetate] | 9 | – | 20
8 | C[C@@H]1OCC2(CCN(c3nc4[nH]nc(-c5cccc(Cl)c5Cl)c4nc3CO)CC2)[C@@H]1N [Example 16, (6-((3S,4S)-4-amino-3-methyl-2-oxa-8-azaspiro[4.5]decan-8-yl)-3-(2,3-dichlorophenyl)-1H-pyrazolo[3,4-b]pyrazin-5-yl)methanol] | – | 2 | –
9 | CC1(N)CCN(c2nc3[nH]nc(-c4cccc(Cl)c4Cl)c3nc2C#N)CC1 [Example 4, 6-(4-amino-4-methylpiperidin-1-yl)-3-(2,3-dichlorophenyl)-1H-pyrazolo[3,4-b]pyrazine-5-carbonitrile] | 465 | – | –
10 | CC1(N)CCN(c2nc3[nH]nc(-c4cccc(Cl)c4Cl)c3nc2O)CC1 [Example 3, 6-(4-amino-4-methylpiperidin-1-yl)-3-(2,3-dichlorophenyl)-1H-pyrazolo[3,4-b]pyrazin-5-ol] | 960 | 2000 | –
11 | CC1(N)CCN(c2nc3[nH]nc(-c4cccc(Cl)c4Cl)c3nc2-c2cc[nH]n2)CC1 [Example 5, 1-(3-(2,3-dichlorophenyl)-5-(1H-pyrazol-3-yl)-1H-pyrazolo[3,4-b]pyrazin-6-yl)-4-methylpiperidin-4-amine] | 397 | 1970 | –
12 | CCNc1nccc(-c2n[nH]c3nc(N4CCC5(CC4)CO[C@@H](C)[C@H]5N)c(CO)nc23)c1Cl [Example 17, (6-((3S,4S)-4-amino-3-methyl-2-oxa-8-azaspiro[4.5]decan-8-yl)-3-(3-chloro-2-(ethylamino)pyridin-4-yl)-1H-pyrazolo[3,4-b]pyrazin-5-yl)methanol] | – | 9 | –
13 | C[C@@H]1OCC2(CCN(c3nc4[nH]nc(-c5ccnc(OC6COC6)c5Cl)c4nc3CO)CC2)[C@@H]1N [Example 22, (6-((3S,4S)-4-amino-3-methyl-2-oxa-8-azaspiro[4.5]decan-8-yl)-3-(3-chloro-2-(oxetan-3-yloxy)pyridin-4-yl)-1H-pyrazolo[3,4-b]pyrazin-5-yl)methanol] | 48 | 3370 | –
14 | CC1(N)CCN(c2nc3[nH]nc(-c4cccc(Cl)c4Cl)c3nc2CO)CC1 [Example 7, (6-(4-amino-4-methylpiperidin-1-yl)-3-(2,3-dichlorophenyl)-1H-pyrazolo[3,4-b]pyrazin-5-yl)methanol] | 19 | 97 | –
15 | CC1(N)CCN(c2nc3[nH]nc(-c4cccc(Cl)c4Cl)c3nc2C(=O)NO)CC1 [Example 13, 6-(4-Amino-4-methylpiperidin-1-yl)-3-(2,3-dichlorophenyl)-N-hydroxy-1H-pyrazolo[3,4-b]pyrazine-5-carboxamide] | 224 | 704 | –
16 | CC1(N)CCN(c2nc3[nH]nc(-c4cccc(Cl)c4Cl)c3nc2C(N)=O)CC1 [Example 8, 6-(4-amino-4-methylpiperidin-1-yl)-3-(2,3-dichlorophenyl)-1H-pyrazolo[3,4-b]pyrazine-5-carboxamide] | 90 | – | –
17 | CCNc1nccc(-c2n[nH]c3nc(N4CCC5(CC4)CO[C@@H](C)[C@H]5N)c(Cl)nc23)c1Cl [Example 19, (3S,4S)-8-(5-Chloro-3-(3-chloro-2-(ethylamino)pyridin-4-yl)-1H-pyrazolo[3,4-b]pyrazin-6-yl)-3-methyl-2-oxa-8-azaspiro[4.5]decan-4-amine] | 6 | 1 | –
18 | C[C@@H]1OCC2(CCN(c3nc4[nH]nc(-c5cccc(OC6COC6)c5Cl)c4nc3CO)CC2)[C@@H]1N [Example 21, (6-((3S,4S)-4-amino-3-methyl-2-oxa-8-azaspiro[4.5]decan-8-yl)-3-(2-chloro-3-(oxetan-3-yloxy)phenyl)-1H-pyrazolo[3,4-b]pyrazin-5-yl)methanol] | 558 | 2710 | –
19 | CC1(N)CCN(c2nc3[nH]nc(-c4cccc(Cl)c4Cl)c3nc2Cl)CC1 [Example 10, 1-(5-chloro-3-(2,3-dichlorophenyl)-1H-pyrazolo[3,4-b]pyrazin-6-yl)-4-methylpiperidin-4-amine] | 277 | 502 | –
20 | CNc1nccc(-c2n[nH]c3nc(N4CCC5(CC4)CO[C@@H](C)[C@H]5N)c(CO)nc23)c1Cl [Example 20, (6-((3S,4S)-4-Amino-3-methyl-2-oxa-8-azaspiro[4.5]decan-8-yl)-3-(3-chloro-2-(methylamino)pyridin-4-yl)-1H-pyrazolo[3,4-b]pyrazin-5-yl)methanol] | 3 | 2 | –
21 | COc1nc2c(-c3cccc(Cl)c3Cl)n[nH]c2nc1N1CCC(C)(N)CC1 [Example 6, 1-(3-(2,3-dichlorophenyl)-5-methoxy-1H-pyrazolo[3,4-b]pyrazin-6-yl)-4-methylpiperidin-4-amine bis(2,2,2-trifluoroacetate)] | 950 | – | 3820
22 | CC(O)c1nc2c(-c3cccc(Cl)c3Cl)n[nH]c2nc1N1CCC(C)(N)CC1 (stereo not drawn) [Example 12, 1-(6-(4-amino-4-methylpiperidin-1-yl)-3-(2,3-dichlorophenyl)-1H-pyrazolo[3,4-b]pyrazin-5-yl)ethanol] | 372 | 326 | –
